Three compounds from US20240374739A1, “BILE ACID CONJUGATE” (Curtin University, priority 2021, published 2024) can be followed below.

The test system of assay [1] is Neurodegenerated cells (perinatal tissue derived human stem cell model for Alzheimer's disease). Description: Lactate dehydrogenase (LDH) assay, in vitro model of Alzheimer's disease. It is filed as cell-based. The conditions noted are these: probucol 20 μM, SPQ 10 μM, HA-1 10 μM, rivastigmine 2 μM, 24 hours; compared to ND cells. How it is done: (§1) Perinatal tissue derived human stem cell model for Alzheimer's disease (AD) was prepared using proprietary protocols to test the effect of new drug entities. Drug treatment was for 24 h in all the assays.
LDH leakage is a well characterised marker of cellular membrane damage and increase in indicative of lactate deficit, is a hallmark of AD.

The subject of assay [2] is Neurodegenerated cells (Alzheimer's disease model). The assay is described as follows: Acetylcholine (ACh) release, Amplex Red reagent-based assay, Alzheimer's disease model. It is filed as cell-based, human. To be noted: probucol 20 μM, SPQ 10 μM, HA-1 10 μM, rivastigmine 2 μM, 24 hours. How it is done: as §1
Acetylcholinesterase (AChE) that regulates hydrolysis of acetylcholine (ACh) in the brain, is an important target for treatment of Alzheimer's disease (AD), a feature of which is ACh deficiency. We assayed for AChE activity and ACh release in control, neurodegenerated AD and drug treated AD cells.

The test system is the same in assay [3]. Description: Greiss (nitric oxide) assay, Alzheimer's disease model. Type of assay: cell-based, human. To be noted: AD model. As to the method: as §1
Increase in oxidative stress is associated with accumulation of amyloid beta seen in the AD model. Increased oxidative stress and nitric oxide levels lead to apoptosis and evoke cytotoxic effects on neurons.

The test system of assay [4] is Neurodegenerated cells (Parkinson's disease model). Description: Greiss (nitric oxide) assay, Parkinson's disease model. It is filed as cell-based, human. To be noted: PD model. How it is done:
Perinatal tissue derived human stem cell model for Parkinson's disease (PD) was prepared using proprietary protocols to test the effect of new drug entities. Drug treatment was for 24 hours in all the assays.
Increase in oxidative stress associated with accumulation of α-synuclein plays a central role in disease progression. Nitric oxide enhances the aggregation of α-synuclein and accelerates disease progression. Increased oxidative stress and nitric oxide levels lead to apoptosis and evoke cytotoxic effects on neurons.

The test system of the next assay is Pancreatic NIT-1 β-cells. Description: MTT viability assay on pancreatic NIT-1 β-cells. To be noted: glucose 25.5 mM (hyperglycemic); 10 μM probucol, 10 μM HA-1. Type of assay: cell-based. As to the method: Cells were grown and processed in a Dulbecco's Modified Eagle's media with 11.5% foetal bovine serum, as per the protocols described below.
Specifically, the cells were cultured on T-75 cm^2 tissue culture flasks (Thermo Fisher Scientific®, Australia) and fed with Dulbecco's modified Eagle's medium (DMEM) (Gibco, Life Technologies, USA) supplemented with either 5.5 mM glucose or 25.5 mM glucose (Sigma Chemical Co, USA), 11.5% fetal bovine serum (Thermo Fisher Scientific, Australia), and 5% penicillin-streptomycin (Thermo Fisher Scientific, Australia). The β-cells were incubated in an environment of 5% CO2 in humidified air at 37° C. using a Nuaire NU-8500 Water Jacket CO2 Incubator (Nuaire, USA) for 72 hours.
The MTT assay for cellular mitochondrial activity is a common and an important analytical technique for determining the degree of cell viability and biological activity. Briefly, MTT was prepared as 5 mg/ml stock solution (Sigma Chemical CO, USA) in phosphate buffer, at pH 7.4 (Thermo Fisher Scientific, Australia). The undissolved residues were removed by sterile filtration. The stock solution was stored in a sterile environment at 4° C. in the dark and used within 7 days of preparation. […] Formazan was dissolved in 100 μl of dimethyl sulfoxide (DMSO) (Sigma Chemical CO, USA) via reverse pipetting and the resultant purple solution was analysed photometrically at 550 nm.
(In general: Tetrazolium assays rely on reduction of a dye to a coloured formazan, in cell work by metabolically active cells.)

In assay [5] the test system is diabetic db/db mice. The assay is described as follows: Novel Object Recognition Test in diabetic db/db mice (Experimental Example 5). It is filed as in vivo. The conditions noted are these: at 14 weeks of age. How it is done:
Cognitive function in diabetic db/db mice was tested with Passive Avoidance and Novel Object Recognition tests. For both tests, the higher the value, the better the memory.
The mice were administered with either probucol, HA-1 or apoCIII antisense from 5 weeks of age, and cognitive performance was tested at 14 weeks of age.

Assay [6] deals with rat model of repeated sub-concussion. Description: Rotarod test, rat model of repeated sub-concussion (Experimental Example 6). It is filed as in vivo, Female PVG rats. To be noted: rats, 12-week repeated sub-concussion; probucol 0.1% w/w, HA-1 0.2% w/w in diet (FIG. 20A). From the text: (§2) Female PVG rats aged 5-7 weeks were used. Under complete anaesthesia with isoflurane, a 25 g weight was dropped onto lambda of the skull from a 1 m height. This was repeated consecutively for 10 times per procedure. The procedure was repeated 3 times per week (i.e., Monday, Wednesday, Friday) for the duration of 12 weeks. Sham group rats received the same procedure without the weight drops. The probucol treatment group received probucol which was supplemented into the diet at 0.1% w/w. The HA-1 treatment group received HA-1 also in the diet at 0.2% w/w for the entire duration of the study.
After the completion of 12-week sub-concussion procedures, neuromotor function was tested with established rotarod and beamwalk tests. On beamwalk, the higher the slips show, the more impairment. On rotarod, the lower the latency indicates the more impairment.
(Falling from the rotarod earlier than controls is read as motor impairment.)

Assay [7] has the same test system. The assay is described as follows: Blood-brain barrier integrity (IgG extravasation), rat model of repeated sub-concussion. It is filed as in vivo, Female PVG rats. To be noted: rats, 12-week repeated sub-concussion.
Excerpt: as §2
The rats were then sacrificed to obtain brain tissue for further analyses.
The increase of IgG extravasation in SC rats indicates disruption of the BBB, allowing blood-borne IgG to leak into the brain.

Assay [8] relates to diabetic db/db mice. Description: Small intestinal apoB and Aβ in diabetic db/db mice. It is filed as in vivo. From the text:
(§3) In this study, 4-5 week old diabetic db/db mice were put onto a diet containing probucol 0.1% (w/w) or HA-1 0.2% (w/w) for either 10 or 24 weeks, till the age of 14 or 28 weeks, respectively. Passive avoidance test was used to assess short-term memory. Subsequently, the mice were sacrificed to obtain plasma and brain tissue samples for further analyses.

Assay [9] has as its system diabetic db/db mice. Description: BBB integrity (IgG extravasation) in diabetic db/db mice. Type of assay: in vivo. The conditions noted are these: for IgG extravasation in CTX: 28-week old.
Excerpt: as §3

The next assay relates to OC-1 cells. Description: Cobalt chloride hypoxia assay. It is filed as cell-based. The conditions noted are these: cells pre-treated with CoCl2 at 100 μM for 24 hours, microscopic examination. How it is done:
This assay is used to determine whether an intervention can reverse hypoxic-induced cell death brought about by cobalt chloride. For this assay, cells are pre-treated with CoCl2 at 100 μM for 24 hours, followed by microscopic examination of cell morphology and viability.

For `CC(=O)O[C@@H]1CC[C@@]2(C)[C@H](CC[C@@H]3[C@@H]2CC[C@]2(C)[C@@H]([C@H](C)CCC(=O)Oc4c(C(C)(C)C)cc(SC(C)(C)Sc5cc(C(C)(C)C)c(O)c(C(C)(C)C)c5)cc4C(C)(C)C)CC[C@@H]32)C1` [HA-1, 2,6-di-tert-butyl-4-((2-((3,5-di-tert-butyl-4-hydroxyphenyl)thio)propan-2-yl)thio)phenyl (4R)-4-[(3R,5R,8R,9S,10S,13R,14S,17R)-3-acetoxy-10,13-dimethyl-2,3,4,5,6,7,8,9,11,12,14,15,16,17-tetradecahydro-1H-cyclopenta[a]phenanthren-17-yl]pentanoate], the “LDH activity / LDH release” value in assay [1] is on record as “decreased significantly LDH activity”. Moreover, the “Acetylcholine (ACh) release / level” value in assay [2] is “increase/maintain the level of acetylcholine (ACh)”. In addition, the values for the nitric oxide level entry in [3] and in [4] were “prevent the reduction of endogenous nitric oxide level” and “prevent the reduction of endogenous nitric oxide levels”, respectively. Also, the NIT-1 cell viability result in the assay on Pancreatic NIT-1 β-cells is “even more profound effect on ameliorating cell death”. For the same compound, the “Novel Object Recognition Test preference index” value in the assay on diabetic db/db mice [5] was “no significant effects”. In addition, the rotarod latency result in assay [6] is on record as “significant increase in the latency”. Further, the “IgG extravasation in cortex (CTX)” value in [7] is on record as “more effective than probucol in attenuating BBB disruption”. Besides, in assay [7], the “IgG extravasation in hippocampal formation (HPF)” value was “more effective than probucol in attenuating BBB disruption”. Besides, the “small intestinal Aβ” value in the assay on diabetic db/db mice [8] (14 weeks of age) and in the assay on diabetic db/db mice [8] (28 weeks of age) was “comparable or superior effects” in each case. For the same compound, the results for the “small intestinal apoB” value in the assay on diabetic db/db mice [8] (14 weeks of age) and in the assay with diabetic db/db mice [8] (28 weeks of age) were “significantly attenuated” and “no longer seen”, respectively. The “IgG extravasation in HPF” value in the assay on diabetic db/db mice [9] (14 weeks of age) is reported as “significantly attenuated”; in the assay with diabetic db/db mice [9] (28 weeks), “significantly attenuated the BBB breakdown”. Besides, the “IgG extravasation in CTX” value in the assay on diabetic db/db mice [9] was “significantly reduced”. Besides, in the assay with OC-1 cells, the cell morphology entry is listed as “optimal morphology”.
Regarding `CC1(C)SC2(C=C(C(C)(C)C)C(=O)C(C(C)(C)C)=C2)C2(C=C(C(C)(C)C)C(=O)C(C(C)(C)C)=C2)S1` [SPQ, 2,4,9,11-tetrakis(1,1-dimethylethyl)-14,14-dimethyl-13,15-dithiadispiro[5.0.5.3]pentadeca-1,4,8,11-tetraene-3,10-dione], the “LDH activity / LDH release” value in assay [1] is “decreased significantly LDH activity”. In addition, in assay [2], the “Acetylcholine (ACh) release / level” value is “increase/maintain the level of acetylcholine (ACh)”. In addition, the nitric oxide level entry is recorded as “prevent the reduction of endogenous nitric oxide level” in assay [3] and “prevent the reduction of endogenous nitric oxide levels” in [4].
Turning to `CC(C)(Sc1cc(C(C)(C)C)c(O)c(C(C)(C)C)c1)Sc1cc(C(C)(C)C)c(O)c(C(C)(C)C)c1` [probucol, 2,6-ditert-butyl-4-[2-(3,5-ditert-butyl-4-hydroxyphenyl)sulfanylpropan-2-ylsulfanyl]phenol], the “LDH activity / LDH release” value in assay [1] was “decreased significantly LDH activity”. Besides, the “Acetylcholine (ACh) release / level” value in [2] is given as “increase/maintain the level of acetylcholine (ACh)”. The nitric oxide level entry in assay [3] is on record as “prevent the reduction of endogenous nitric oxide level”; in assay [4], “prevent the reduction of endogenous nitric oxide levels”. Moreover, the NIT-1 cell viability result with Pancreatic NIT-1 β-cells is reported as “partially offset hyperglycaemia-induced pancreatic beta cell death”. The “Novel Object Recognition Test preference index” value in the assay on diabetic db/db mice [5] is “no significant effects”. For the same compound, the rotarod latency entry in [6] is on record as “did not show any changes”. Further, the “IgG extravasation in cortex (CTX)” value in assay [7] is given as “some reduction in the CTX IgG extravasation”. For the same compound, in [7], the “IgG extravasation in hippocampal formation (HPF)” value is reported as “no protection against BBB disruption in HPF”. For the same compound, the “small intestinal Aβ” value in the assay on diabetic db/db mice [8] (14 weeks of age) and in the assay with diabetic db/db mice [8] (28 weeks of age) was “significantly attenuated” throughout. Further, the “small intestinal apoB” value in the assay on diabetic db/db mice [8] (14 weeks of age) is given as “no significant reduction”. In addition, the “IgG extravasation in HPF” value in the assay with diabetic db/db mice [9] (14 weeks of age) was “significantly attenuated”; in the assay on diabetic db/db mice [9] (28 weeks), “did not show BBB protection”. In addition, the “IgG extravasation in CTX” value in the assay on diabetic db/db mice [9] is “no beneficial effects on CTX IgG extravasation”. For the same compound, in the assay with OC-1 cells, the cell morphology entry is “normal morphology”.
